Data: patent publication US20240058340A1, “COMPOSITIONS AND METHODS FOR TREATING CANCER” (The Regents of the University of California, priority 2020, published 2024)

How the values were obtained:
[1] = test system: HCC827 (EGFR exon 19 deletion); test: Cellular IC50, Cell Titer Glo, HCC827 cell line; assay type: cell-based; conditions: Homo sapiens, HCC827 cells, 72 hours
Procedure: (§1) The PC-9 cell line was purchased from Sigma, and the HCC827 cell line was purchased from ATCC. Each cell line was maintained at ≤passage 10 at 37° C. in a humidified incubator with 5% CO2. Cells were plated in 96-well optical bottom plates (Corning #3903; Corning, NY) at a cell density of 5,000 cells/well, allowed to adhere for minimally 16 hours, and subsequently treated with the test compounds using an 11-point serial dilution (1:3) in duplicate using an HP D300 digital 4 dispenser (Tecan, Morrisville, NC). 72 hours after addition of the test compounds, Cell Titer Glo reagent (Promega, Madison, WI) was added to the plate according to manufacturer's protocol and luminescence measured using a Spectramax M5 (Molecular Devices, San Jose, CA). IC50s were calculated using the 4-parameter variable slope curve fit using the equation below where, Y and X are variables plotted, Top and Bottom are plateaus in the units of the Y axis, LogIC50 is the Log transformation of the IC50 value and HillSlope is the Hill Slope for the curve and describes curve steepness (GraphPad Prism, version 6.07, GraphPad Software, Inc.). Y=Bottom+(Top−Bottom)/(1+10((LogIC50−X)*HillSlope))).

[2] = test system: PC-9 (EGFR exon 19 deletion); test: Cellular IC50, Cell Titer Glo, PC-9 cell line; assay type: cell-based; conditions: Homo sapiens, PC-9 cells, 72 hours
Procedure: as §1

[3] = Brain penetration in non-tumor bearing mice; assay type: in vivo; conditions: for Brain Penetration (% of plasma): brain to plasma percentage; for Kpuu (Avg): unbound ratio of drug in brain to plasma
Source text: Disclosed in table 5 Brain to plasma percentages and unbound ratios of drugs in brain to plasma of indicated drugs in non-tumor bearing mice

SMILES | IC50 [1] [nM] | IC50 [2] [nM] | Brain Penetration (% of plasma) [3] | Kpuu (Avg) [3]
CN1CCC2CN(C[C@H]3COc4cc5ncnc(Nc6cccc(Br)c6F)c5cc4O3)CC21 (stereo partly shown) | 5.9 | 12.9 |  | 
CN1CC2CN(C[C@H]3COc4cc5ncnc(Nc6cccc(Br)c6F)c5cc4O3)CC2C1 (stereo partly shown) | 14.3 | 21.7 |  | 
CN1CCN(C[C@H]2COc3cc4ncnc(Nc5cccc(Br)c5F)c4cc3O2)CCC1C(F)(F)F (stereo partly shown) | 36.9 | 54 |  | 
CN1CCN(C[C@H]2COc3cc4ncnc(Nc5cccc(Br)c5F)c4cc3O2)CC(F)(F)C1 | 50.6 | 140 |  | 
CN1CCC12CN(C[C@H]1COc3cc4ncnc(Nc5cccc(Br)c5F)c4cc3O1)C2 | 7 | 9.4 |  | 
CN1CC2(C1)CN(C[C@H]1COc3cc4ncnc(Nc5cccc(Br)c5F)c4cc3O1)C2 | 5.9 | 10.1 |  | 

Results, then the molecule that gave them:

IC50 [1] [nM] | IC50 [2] [nM] | Brain Penetration (% of plasma) [3] | Kpuu (Avg) [3] | SMILES
 |  | 64.8 % of plasma | 0.491 | C#Cc1cccc(Nc2ncnc3cc4c(cc23)OCCO4)c1 [JGK005]
 |  | 106.4 % of plasma | 1.045 | Fc1c(Cl)cccc1Nc1ncnc2cc3c(cc12)OCCO3 [JGK010]
 |  | 106.2 % of plasma | 1.037 | Fc1cccc(Nc2ncnc3cc4c(cc23)OCCO4)c1F [JGK028]
 |  | 84.3 % of plasma | 0.575 | C#Cc1cccc(Nc2ncnc3cc4c(cc23)OCCO4)c1F [JGK038]
 |  | 167.6 % of plasma | 1.033 | Fc1c(I)cccc1Nc1ncnc2cc3c(cc12)OCCO3 [JGK042]
